Results taken from patent US20070037253A1, “Methods and compositions for treatment of arthritis and cancer” (priority 2003, published 2007).
“Also recorded” adds a separate entry of the source. Where a SMILES comes first, the peptide text is derived from it.

What was measured:
MMP-2 = target: T1, MMP-2 (Homo sapiens, UniProt P08253); assay: Gelatin zymography of human synovial fluid pre-incubated with inhibitors; type: biochemical; details: 5 or 10 μM, pre-incubated 37° C. 1 h
T1 construct: from tissue; host or cells: human synovial fluid
T1 sequence (P08253 110-660): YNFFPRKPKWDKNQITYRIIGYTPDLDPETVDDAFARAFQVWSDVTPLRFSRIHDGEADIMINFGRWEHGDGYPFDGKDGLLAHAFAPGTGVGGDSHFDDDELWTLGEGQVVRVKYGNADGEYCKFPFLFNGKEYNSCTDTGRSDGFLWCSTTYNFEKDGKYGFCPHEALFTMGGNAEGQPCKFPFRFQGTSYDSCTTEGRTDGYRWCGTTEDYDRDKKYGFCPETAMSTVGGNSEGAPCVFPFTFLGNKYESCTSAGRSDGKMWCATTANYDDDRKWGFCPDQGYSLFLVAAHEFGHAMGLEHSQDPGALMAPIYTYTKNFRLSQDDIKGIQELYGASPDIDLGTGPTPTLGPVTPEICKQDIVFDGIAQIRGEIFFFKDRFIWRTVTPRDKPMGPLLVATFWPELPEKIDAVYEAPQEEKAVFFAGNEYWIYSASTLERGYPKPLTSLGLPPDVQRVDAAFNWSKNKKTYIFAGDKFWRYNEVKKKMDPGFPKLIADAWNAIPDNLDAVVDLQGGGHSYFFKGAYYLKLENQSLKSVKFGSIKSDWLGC
Protocol: (§1) (A) Samples containing human synovial fluid (5 μL) and 5 or 10 μM of peptides were pre-incubated at 37° C. for 1 h in Tris-HCl buffer prior to electrophoresis on 10% SDS-PAGE gel containing gelatin (0.1%). […] (B) The mean density (OD/mm2)±SD (n=3), representing MMP-2 activity, obtained by scanning the zymograms using the GS-710 calibrated imaging densitometer (Bio Rad, USA).
(§2) Gelatin zymography: human synovial fluid, purified human recombinant MMP-2 and -9 or APMA-activated concentrated culture supernatant samples (10 μL) was mixed (1:1) with Laemmli sample buffer, loaded on 4% acrylamide stacking gel and electrophoresed (120 V) at 4° C. on a 10% acrylamide-resolving minigel containing 0.1% gelatin. After electrophoresis for 1 h, the gels were soaked in 2.5% Triton X-100 on a shaker for 1 h, changing the solution after 30 min, to eliminate SDS. After overnight incubation in zymogen activation buffer [50 mM Tris-HCl, pH 7.5, containing 10 mM CaCl2 and 5 mM ZnCl2] at 37° C., the gels were rinsed in distilled water, and stained for 3 hr with […], after which clear bands of digested gelatin were clearly visible. The gels were briefly rinsed in distilled water and scanned by the Bio-Rad GS-710 Calibrated Imaging Densitometer.

MMP-9 = target: T2, MMP-9 (Homo sapiens, UniProt P14780); assay: as above; type: biochemical; details: co-incubated 1 h
T2 construct: Samples containing human synovial fluid (5 μL) and 5 or 10 μM of peptides were pre-incubated; from tissue; host or cells: human synovial fluid
T2 sequence (P14780 94-707): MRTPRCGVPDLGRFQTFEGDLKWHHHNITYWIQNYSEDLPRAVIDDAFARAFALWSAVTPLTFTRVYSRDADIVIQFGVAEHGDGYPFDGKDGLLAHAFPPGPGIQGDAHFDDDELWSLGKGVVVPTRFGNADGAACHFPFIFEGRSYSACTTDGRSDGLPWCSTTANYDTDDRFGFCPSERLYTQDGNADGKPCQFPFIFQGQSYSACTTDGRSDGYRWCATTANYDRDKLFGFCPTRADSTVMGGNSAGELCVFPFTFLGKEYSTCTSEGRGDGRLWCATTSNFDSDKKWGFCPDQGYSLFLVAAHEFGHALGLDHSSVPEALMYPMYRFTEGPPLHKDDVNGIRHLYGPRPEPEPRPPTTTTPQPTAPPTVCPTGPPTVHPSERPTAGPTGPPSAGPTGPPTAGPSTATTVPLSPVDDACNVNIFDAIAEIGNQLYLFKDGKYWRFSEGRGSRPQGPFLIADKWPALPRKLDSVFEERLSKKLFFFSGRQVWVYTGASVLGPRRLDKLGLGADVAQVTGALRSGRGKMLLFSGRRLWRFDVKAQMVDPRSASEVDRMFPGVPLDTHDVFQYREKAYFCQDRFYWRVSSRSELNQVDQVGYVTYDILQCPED
Protocol: as §1, §2

CC[C@H](C)[C@H](NC(=O)[C@H](CC(=O)O)NC(=O)[C@@H](N)C(C)C)C(=O)N[C@@H](Cc1c[nH]cn1)C(=O)N[C@H](C(=O)N[C@@H](Cc1c[nH]c2ccccc12)C(=O)N[C@@H](CC(=O)O)C(=O)NCC(=O)N[C@H](C(=O)N[C@H](C(=O)N[C@@H](CC(=O)O)C(=O)N[C@H](C(=O)N[C@@H](Cc1c[nH]cn1)C(=O)N[C@H](C(=O)N[C@@H](Cc1c[nH]c2ccccc12)C(=O)N[C@@H](CC(=O)O)C(=O)NCC(=O)N[C@H](C(=O)O)C(C)C)C(C)C)[C@@H](C)CC)C(C)C)C(C)C)C(C)C [PIP [59-67] dimer] (H-VDIHVWDGVVDIHVWDGV-OH; N-terminus and C-terminus assumed)
MMP-2 gelatinase activity (zymogram densitometry) vs control (MMP-2): did not show any significant difference from the control; also recorded: insignificant
MMP-9 gelatinase activity vs control (MMP-9): insignificant
